What was measured:
Fert2 = target: T1, Fert2 (Mus musculus, UniProt P70451); assay: Kinase inhibitor profiling, pEY phosphorylation; assay type: biochemical
T1 construct: specificity data for proteins generated from a library of eighteen full-length clones; host or cells: rabbit reticulocyte lysate, TnT coupled transcription/translation

FRK = assay: Kinase inhibitor profiling, pEY phosphorylation; assay type: biochemical

T1 sequence (P70451 whole entry): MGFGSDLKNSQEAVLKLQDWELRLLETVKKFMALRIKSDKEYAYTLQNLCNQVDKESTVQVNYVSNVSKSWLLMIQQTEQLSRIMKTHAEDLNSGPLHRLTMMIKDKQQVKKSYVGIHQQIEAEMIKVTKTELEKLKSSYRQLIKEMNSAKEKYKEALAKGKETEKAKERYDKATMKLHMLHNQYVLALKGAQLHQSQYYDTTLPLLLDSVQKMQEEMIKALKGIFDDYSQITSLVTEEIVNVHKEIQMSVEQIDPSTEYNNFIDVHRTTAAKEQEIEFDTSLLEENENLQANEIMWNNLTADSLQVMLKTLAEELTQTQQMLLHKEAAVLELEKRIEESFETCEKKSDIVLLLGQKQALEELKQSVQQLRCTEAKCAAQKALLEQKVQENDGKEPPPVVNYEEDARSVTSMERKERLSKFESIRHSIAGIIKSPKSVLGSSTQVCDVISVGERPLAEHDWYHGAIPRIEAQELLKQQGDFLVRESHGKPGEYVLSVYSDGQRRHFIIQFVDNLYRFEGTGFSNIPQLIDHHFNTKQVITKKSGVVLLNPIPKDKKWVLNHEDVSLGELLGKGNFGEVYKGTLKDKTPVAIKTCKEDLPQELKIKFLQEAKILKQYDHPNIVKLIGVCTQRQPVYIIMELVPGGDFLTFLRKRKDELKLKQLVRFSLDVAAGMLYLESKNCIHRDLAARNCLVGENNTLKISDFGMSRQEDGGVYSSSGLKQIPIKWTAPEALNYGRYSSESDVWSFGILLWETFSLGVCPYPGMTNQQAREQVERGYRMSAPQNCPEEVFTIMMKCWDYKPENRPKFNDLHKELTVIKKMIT

With `COc1c(C=O)c(O)cc2c1C(=O)c1ccccc1C2=O` [Damnacanthal] the “Inhibition specificity towards pEY phosphorylation at 10X IC50, Fert2” value (Fert2) was “L (low inhibition (“L”=between 50–75% of the activity remaining))” and the “Inhibition specificity towards pEY phosphorylation at 10X IC50, FRK” value (FRK) was “H (high inhibition (“H”=less than 25% of the activity remaining))”.

Source: patent publication US7063946B2, “Methods, reagents, kits and apparatus for protein function analysis” (Meso Scale Technologies, LLC., priority 2001, dated 2006)
